Legend:
Assay type in all cases: in vivo
[1] = system: Echinochloa crus-galli (ECHCG); experiment: Test 1A glasshouse assay, post-emergence herbicidal activity; details: Echinochloa crus-galli, 312 h, application rate 250 g/ha, 13 days after application, visual (100%=total damage; 0%=no damage), read-out: Post-emergence Herbicidal Activity (% Phytotoxicity) ECHCG
Procedure, shortened: (§1)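 Herbicidal effect is scored by eye as % phytotoxicity (0–100%) 13 days after treatment of 8-day-old glasshouse-grown plants. The spray solution contains the technical active ingredient in acetone/water with 0.5% Tween 20.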

Avena fatua (AVEFA) [2] = experiment: as above; details: Avena fatua, 312 h, application rate 250 g/ha, 13 days after application, visual (100%=total damage; 0%=no damage), read-out: Post-emergence Herbicidal Activity (% Phytotoxicity) AVEFA
Procedure, shortened: as §1

[3] = system: Alopecurus myosuroides (ALOMY); experiment: as above; details: Alopecurus myosuroides, 312 h, application rate 250 g/ha, 13 days after application, visual (100%=total damage; 0%=no damage), read-out: Post-emergence Herbicidal Activity (% Phytotoxicity) ALOMY
Procedure, shortened: as §1

Lolium perenne (LOLPE) [4] = experiment: as above; details: Lolium perenne, 312 h, application rate 250 g/ha, 13 days after application, visual (100%=total damage; 0%=no damage), read-out: Post-emergence Herbicidal Activity (% Phytotoxicity) LOLPE
Procedure, shortened: as §1

[5] = system: Echinochloa crus-galli (ECHCG); experiment: Test 1A glasshouse assay, pre-emergence herbicidal activity; details: 312 h, 13 days after application, read-out: Pre-emergence herbicidal activity (% phytotoxicity) ECHCG
Protocol: (§2) Seeds of a variety of test species were sown in standard soil in pots. After cultivation for one day (pre-emergence) or after 8 days cultivation (post-emergence) under controlled conditions in a glasshouse (at 24/16° C., day/night; 14 hours light; 65% humidity), the plants were sprayed with an aqueous spray solution derived from the formulation of the technical active ingredient in acetone/water (50:50) solution containing 0.5% Tween 20 (polyoxyethelyene sorbitan monolaurate, CAS RN 9005-64-5). The test plants were then grown under controlled conditions in a glasshouse (at 24/16° C., day/night; 14 hours light; 65% humidity) and watered twice daily. 13 days after application of the test herbicide, for pre- and post-emergence, the test was evaluated visually for percentage phytotoxicity to the plant (where 100%=total damage to plant; 0%=no damage to plant).
(§3) Test plants: Lolium perenne (LOLPE), Alopecurus myosuroides (ALOMY), Echinochloa crus-galli (ECHCG), and Avena fatua (AVEFA); these are all grassy monocotyledonous weeds.

Avena fatua (AVEFA) [6] = experiment: as above; details: 312 h, 13 days after application, read-out: Pre-emergence herbicidal activity (% phytotoxicity) AVEFA
Protocol: as §2, §3

[7] = system: Alopecurus myosuroides (ALOMY); experiment: as above; details: 312 h, 13 days after application, read-out: Pre-emergence herbicidal activity (% phytotoxicity) ALOMY
Protocol: as §2, §3

Lolium perenne (LOLPE) [8] = experiment: as above; details: 312 h, 13 days after application, read-out: Pre-emergence herbicidal activity (% phytotoxicity) LOLPE
Protocol: as §2, §3

SMILES	pest or weed control at 250 g/ha [1] [%]	pest or weed control at 250 g/ha (Avena fatua (AVEFA) [2]) [%]	pest or weed control at 250 g/ha [3] [%]	pest or weed control at 250 g/ha (Lolium perenne (LOLPE) [4]) [%]	inhibition at 1000 g/ha ([5]; 1000 g/ha) [%]	inhibition at 1000 g/ha (Avena fatua (AVEFA) [6]; 1000 g/ha) [%]	inhibition at 1000 g/ha ([7]; 1000 g/ha) [%]	inhibition at 1000 g/ha (Lolium perenne (LOLPE) [8]; 1000 g/ha) [%]	inhibition at 250 g/ha [5] [%]	inhibition at 250 g/ha (Avena fatua (AVEFA) [6]) [%]	inhibition at 250 g/ha [7] [%]	inhibition at 250 g/ha (Lolium perenne (LOLPE) [8]) [%]
Cc1cc(C)c(C2C(=O)CC(CCNC(=O)c3ccccc3)C2=O)c(C)c1 (centres unmarked) [Compound A1, N-[2-[2,4-dioxo-3-(2,4,6-trimethylphenyl)cyclopentyl]ethyl]-benzamide]	100	90	80	100	100	70	90	100	–	–	–	–
Cc1cc(C)c(C2C(=O)CC(CCNC(=O)C(C)(C)C)C2=O)c(C)c1 (centres unmarked) [Compound A2]	80	80	90	100	–	–	–	–	70	70	90	100
Cc1cc(C)c(C2C(=O)CC(CCNC(=O)c3ccccn3)C2=O)c(C)c1 (centres unmarked) [Compound A3]	100	100	90	100	–	–	–	–	100	90	90	100
Cc1cc(C)c(C2C(=O)CC(CCNC(=O)C3CCCCC3)C2=O)c(C)c1 (centres unmarked) [Compound A13]	100	70	70	90	–	–	–	–	100	80	80	90
